In patent US20110152267A1, “Compositions and Methods for Treating Hyperproliferative Disorders” (Texas Tech University System, priority 2009, published 2011):

How the values were obtained:
Type in all cases: cell-based, human
[1] = tested on: OVCAR-8 ovarian adenocarcinoma cell line; test: DIMSCAN cytotoxicity, fenretinide + L-threo-sphinganines 3:1 (Example B15); set-up: key to CI (Combination Index): Chou-Talalay CI: <0.9 synergy, 0.9-1.1 additive, >1.1 antagonism; settings: 96 h
Procedure: (§1) Cytotoxicity Assay—Once again, cytotoxicity is determined using the DIMSCAN assay system (R. Proffitt et al., Cytometry 24, 204-213 (1996); T. Frgala et al., Mol Cancer Ther. 6:886-97, 2007). The system employs digital imaging microscopy to quantify viable cells, which selectively accumulate fluorescein diacetate to become brightly fluorescent. The system is capable of measuring cytotoxicity over a 4-5 log dynamic range by quenching the residual fluorescence of dead and dying cells with eosin Y and quantifying the total fluorescence of viable cells using digital thresholding. Measured fluorescence is directly proportionate to the number of viable cells. A comparison of the total fluorescence of a drug-treated cell population to the fluorescence of a similar number of untreated cells yields a survival fraction. In brief, 2000 to 10,000 cells/well (depending on size and growth rates) are replicate plated into 60 wells of a 96-well tissue culture plate in 0.1 mL of whole medium and allowed to attach overnight. Drug(s) are then added in 0.05 mL of whole medium to the final concentrations indicated. Drugs (fenretinide, and various chain length L-threo-sphinganines) were tested both as single agents and in a 3:1 ratio of fenretinide:sphinganine. C18-L-threo-sphinganine, or “safingol,” was also tested and results shown for reference. There are 12 wells treated per drug concentration. Twelve wells receive drug vehicle-only to the appropriate final concentration and serve as controls for the plate. Cells are incubated for 96 hours at 37° C. in ambient air with 5% CO2. Fluorescein diacetate is then added to each well in 0.05 mL media to a final concentration of 8 microgram/mL. Cells are incubated for a further 15 minutes at 37° C. and 0.03 mL of 0.5% eosin Y is added to each well. Total fluorescence of viable cells is then measured by digital imaging microscopy. Results were graphed as the ratio of the fluoresecence of drug-treated wells to non-drug treated control wells (i.e., Survival Fraction). All tests were performed at least twice. Representative results are shown.
(§2) The Combination Index (CI) is a term to describe mathematical modeling of the pharmacologic effects on cytotoxicity (cell death) of two drugs in combination based. Cytotoxic “synergy” is defined as a cell death affect which is greater than would be expected from a simple product of the single agent cytotoxicities alone (i.e. an “additive” effect). By Chou-Talalay analysis, a CI<0.9 on a Fraction Affected (“Fa”, i.e. fraction of cells killed) indicates synergy, with smaller numbers indicating greater synergy; a CI of 0.9-1.1 signifies an additive or near-additive effect; and a CI>1.1 means the drug combination is antagonistic.
Fenretinide and L-threo-sphinganines tested in human ovarian adenocarcinoma (ovarian cancer) cell line, OVCAR-8.

[2] = tested on: OE-33 esophageal adenocarcinoma cell line; test: DIMSCAN cytotoxicity, fenretinide + L-threo-sphinganines 3:1 (Example B19)
Procedure: as §1, §2
(§3) Fenretinide and L-threo-sphinganines tested in human esophageal adenocarcinoma (esophagus cancer) cell lines, OE-19 and OE-33.

[3] = tested on: OE-19 esophageal adenocarcinoma cell line; test: as above
Procedure: as §1, §2, §3

[4] = tested on: SJ-G2 Glioblastoma cell line; test: DIMSCAN cytotoxicity, fenretinide + L-threo-sphinganines 3:1 (Example B8); settings: 96 h
Procedure: as §1, §2
Fenretinide and L-threo-sphinganines tested in human Glioblastoma (brain cancer) cell line, SJ-G2.

[5] = tested on: HT-29 colorectal adenocarcinoma cell line; test: DIMSCAN cytotoxicity, fenretinide + L-threo-sphinganines 3:1 (Example B10); settings: 96 h
Procedure: as §1, §2
Fenretinide and L-threo-sphinganines tested in human colorectal adenocarcinoma (colon cancer) cell line, HT-29.

[6] = tested on: U-266 Multiple Myeloma cell line; test: DIMSCAN cytotoxicity, fenretinide + L-threo-sphinganines 3:1 (Example B3); settings: 96 h
Procedure: as §1, §2
Fenretinide and L-threo-sphinganines tested in human Multiple Myeloma (a cancer of the blood and bone marrow) cell line, U-266.

[7] = tested on: CHLA-90 pediatric neuroblastoma cell line; test: DIMSCAN cytotoxicity, fenretinide + L-threo-sphinganines 3:1 (Example B21)
Procedure: as §1, §2
Fenretinide and L-threo-sphinganines tested in human pediatric neuroblastoma (a nerve-related, solid tumor cancer) cell line, CHLA-90.

[8] = tested on: U-118 Glioblastoma cell line; test: DIMSCAN cytotoxicity, fenretinide + L-threo-sphinganines 3:1 (Example B5); set-up: key to CI (Combination Index): CI<0.9 synergy, 0.9-1.1 additive, >1.1 antagonistic; settings: U-118 MG, 96 h
Procedure: as §1, §2
Fenretinide and L-threo-sphinganines tested in human Glioblastoma (brain cancer) cell line, U-118.

[9] = 4-HPR 1.5 μM + L-threo-sphinganine 0.5 μM
[10] = 4-HPR 3 μM + L-threo-sphinganine 1 μM
[11] = 4-HPR 6 μM + L-threo-sphinganine 2 μM
[12] = 4-HPR 9 μM + L-threo-sphinganine 3 μM
[13] = 4-HPR 12 μM + L-threo-sphinganine 4 μM

With `CCCCCCCCCCCCCC[C@H](O)[C@@H](N)CO` [C17, (2S,3S)-2-amino-1,3-heptadecanediol] the “CI (Combination Index)” value [1, 9] was 0.2, the “Fa (fraction affected)” value [1, 9] was 0.467 and the “CI (Combination Index)” value [1, 10] was 0.4. The “Fa (fraction affected)” value [1, 10] was 0.519, the “CI (Combination Index)” value [1, 11] was 0.5 and the “Fa (fraction affected)” value [1, 11] was 0.676. For the same molecule, the “CI (Combination Index)” value [1, 12] was 0.4, the “Fa (fraction affected)” value [1, 12] was 0.903 and the CI [2, 9] was 1.5. For the same molecule, the Fa [2, 9] was 0.376, the CI [2, 10] was 1.1 and the Fa [2, 10] was 0.767. It also gave a CI [2, 11] of 0.8, a Fa [2, 11] of 0.945 and a CI [2, 12] of 0.4. It also gave a Fa [2, 12] of 0.991, a CI [3, 9] of 0.3 and a Fa [3, 9] of 0.314. The CI [3, 10] was 0.3, the Fa [3, 10] was 0.462 and the CI [3, 11] was 0.2. For the same molecule, the Fa [3, 11] was 0.689, the CI [3, 12] was 0.2 and the Fa [3, 12] was 0.743. The “CI (Combination Index)” value [4, 9] was 0.6, the “Fa (fraction affected)” value [4, 9] was 0.462 and the “CI (Combination Index)” value [4, 10] was 0.4. For the same molecule, the “Fa (fraction affected)” value [4, 10] was 0.874, the “CI (Combination Index)” value [4, 11] was 0.6 and the “Fa (fraction affected)” value [4, 11] was 0.928. The “CI (Combination Index)” value [4, 12] was 0.8, the “Fa (fraction affected)” value [4, 12] was 0.941 and the “CI (Combination Index)” value [5, 9] was 1.1. For the same molecule, the “Fa (fraction affected)” value [5, 9] was 0.112, the “CI (Combination Index)” value [5, 10] was 0.8 and the “Fa (fraction affected)” value [5, 10] was 0.661. The “CI (Combination Index)” value [5, 11] was 0.6, the “Fa (fraction affected)” value [5, 11] was 0.974 and the “CI (Combination Index)” value [5, 12] was 0.5. For the same molecule, the “Fa (fraction affected)” value [5, 12] was 0.993, the “CI (Combination Index)” value [6, 9] was 1.3 and the “Fa (fraction affected)” value [6, 9] was 0.134. The “CI (Combination Index)” value [6, 10] was 1.5, the “Fa (fraction affected)” value [6, 10] was 0.35 and the “CI (Combination Index)” value [6, 11] was 0.9. The “Fa (fraction affected)” value [6, 11] was 0.901, the “CI (Combination Index)” value [6, 12] was 0.4 and the “Fa (fraction affected)” value [6, 12] was 0.991. For the same molecule, the CI [7, 10] was 0.4, the Fa [7, 10] was 0.994 and the CI [7, 11] was 0.4. For the same molecule, the Fa [7, 11] was 0.999, the CI [7, 12] was 0.6 and the Fa [7, 12] was 0.9997. The CI [7, 13] was 0.3, the Fa [7, 13] was 1 and the “CI (Combination Index)” value [8, 9] was 1.7. The “Fa (fraction affected)” value [8, 9] was 0.519, the “CI (Combination Index)” value [8, 10] was 1.8 and the “Fa (fraction affected)” value [8, 10] was 0.791. For the same molecule, the “CI (Combination Index)” value [8, 11] was 1.5, the “Fa (fraction affected)” value [8, 11] was 0.951 and the “CI (Combination Index)” value [8, 12] was 0.7. The “Fa (fraction affected)” value [8, 12] was 0.995.
